# Assay results reported in US11311522B1 (Cavion, Inc., priority 2018, dated 2022).
# Where “and” joins values, the source holds several entries; their conditions need not be identical. Identical values can stand only once. Like-named read-outs stand apart in the source and are kept apart here.
# Legend:
# [1] = Phase 1 single-dose pharmacokinetics (PN001, PN002/Part I, PN003, PN005); format: in vivo, human; settings: for Cmax / AUC(0-t): male, human, plasma, oral; for AUC(0-t): read-out: AUC0-24
# [2] = Simulated Css and total active moiety, 10 mg BID; parameters: species or system human; settings: for Css, estimated mean / Steady-state AUC24, estimated mean: CX-8998 10 mg twice daily fasted
# [3] = target: T1, Cav3.3 (Homo sapiens, UniProt Q9P0X4); experiment: Cav3.3 FLIPR calcium influx assay (HEK 293 cells); format: cell-based; settings: read-out: IC50
# T1 construct: expressed in transfected cells; host or cells: HEK 293
# [4] = system: WAG/Rij rats; experiment: WAG/Rij rat model of absence epilepsy; format: in vivo
# Source text: Other T-type antagonists from structurally diverse series have shown similar efficacy in this model (Broicher, 2007; Blumenfeld, 2008; Broicher, 2008; Shipe, 2008; Yang, 2008; Uebele, 2009; Russo, 2010; Russo, 2011).
# Data were scored with automated seizure analysis software, averaged, and normalized to enable treatment comparisons (FIG. 76)
# Control animals received vehicle administrations. […] Source: Merck TTA Package Description (FIG. 79).
# [5] = Pharmacokinetics in rats; format: in vivo, rat
# Experimental: The validity and reproducibility of the assays were determined, and the precision and accuracy for calibration standards and quality control samples were examined. […] The analytes were stable in plasma under the storage and assay conditions. […] Assay performances were satisfactory and met acceptance criteria for system performance suitability, quantitation range, calibration linearity, assay accuracy and precision, and assay recovery.
# [6] = In vitro plasma protein binding, rat; format: in vitro ADME
# Source text: CX-8998 distributes readily to the brain in rats and to brain and cerebral spinal fluid (CSF) in dogs.
# [7] = In vitro plasma protein binding, human; format: in vitro ADME
# [8] = system: P-glycoprotein; experiment: P-glycoprotein bidirectional transport; format: in vitro ADME, human, monkey, and rat
# Source text: Glucuronide conjugates of the oxygenated metabolites are detected in human, monkey, and dog hepatocyte preparations. […] However, the abundance of CYP3A5, CYP2C19, and CYP2D6 in human liver microsomes is low (2%-5%) relative to the primary contributors, CYP3A4 (˜30%) and CYP2C9 (˜20%). […] Information on reproductive and developmental toxicology was obtained in a 28-day pivotal female fertility study in rats and in preliminary embryo-fetal development studies in rats and rabbits.
# [9] = system: CYP1A2, CYP3A4, CYP2C8, CYP2C9, CYP2C19, CYP2D6, CYP2B6; experiment: CYP inhibition in human liver microsomes; format: in vitro ADME
# [10] = system: T2, CYP1A2, CYP3A4, CYP2C8, CYP2C9, CYP2C19, CYP2D6; experiment: CYP inhibition in human liver microsomes; format: in vitro ADME; settings: human liver microsomes
# T2 construct: IC50, CYP1A2, CYP3A4, CYP2C8, CYP2C9, CYP2C19, CYP2D6; other: human liver microsomes
# [11] = for Day 90 Free Plasma AUC24 at NOAEL for Dog 90-Day Toxicology: 30 mg/kg/day; for Day 90 Free Plasma AUC24 at NOAEL for Rat 90-Day Toxicology: 300 mg/kg/day
# [12] = in vivo; settings: rat, po
# [13] = clinical; settings: human, plasma, oral, 8 mg
# Source text: Subjects will be screened for study eligibility within 28 days before administration of the first dose of study drug. Subjects who meet the study eligibility criteria will be admitted to the clinical research unit in the afternoon of the day before administration of the first dose of study drug (Period 1/Day −1).
# Treatments A, B, and C will be separated by a minimum 7-day washout period. […] Administration of Treatment D may be separated from administration of Treatments A, B, and C by approximately 4 weeks to allow for analysis of the bioanalytical samples from the first 3 treatments.
# [14] = Crossover bioavailability study IR vs MR1 vs MR2 capsules: PK; parameters: AUC72hr: unit not given beside the values; settings: for AUC728, Mean / AUC728: single 8 mg dose, fasted; for AUC728, Mean: N=15; for AUC728: individual subjects; for AUC72hr: plasma
# [15] = simulated from CX-8998 10 mg BID
# [16] = Rat, IV 2 mg/kg, mean of 2 animals
# T1 sequence (Q9P0X4 whole entry, species assumed): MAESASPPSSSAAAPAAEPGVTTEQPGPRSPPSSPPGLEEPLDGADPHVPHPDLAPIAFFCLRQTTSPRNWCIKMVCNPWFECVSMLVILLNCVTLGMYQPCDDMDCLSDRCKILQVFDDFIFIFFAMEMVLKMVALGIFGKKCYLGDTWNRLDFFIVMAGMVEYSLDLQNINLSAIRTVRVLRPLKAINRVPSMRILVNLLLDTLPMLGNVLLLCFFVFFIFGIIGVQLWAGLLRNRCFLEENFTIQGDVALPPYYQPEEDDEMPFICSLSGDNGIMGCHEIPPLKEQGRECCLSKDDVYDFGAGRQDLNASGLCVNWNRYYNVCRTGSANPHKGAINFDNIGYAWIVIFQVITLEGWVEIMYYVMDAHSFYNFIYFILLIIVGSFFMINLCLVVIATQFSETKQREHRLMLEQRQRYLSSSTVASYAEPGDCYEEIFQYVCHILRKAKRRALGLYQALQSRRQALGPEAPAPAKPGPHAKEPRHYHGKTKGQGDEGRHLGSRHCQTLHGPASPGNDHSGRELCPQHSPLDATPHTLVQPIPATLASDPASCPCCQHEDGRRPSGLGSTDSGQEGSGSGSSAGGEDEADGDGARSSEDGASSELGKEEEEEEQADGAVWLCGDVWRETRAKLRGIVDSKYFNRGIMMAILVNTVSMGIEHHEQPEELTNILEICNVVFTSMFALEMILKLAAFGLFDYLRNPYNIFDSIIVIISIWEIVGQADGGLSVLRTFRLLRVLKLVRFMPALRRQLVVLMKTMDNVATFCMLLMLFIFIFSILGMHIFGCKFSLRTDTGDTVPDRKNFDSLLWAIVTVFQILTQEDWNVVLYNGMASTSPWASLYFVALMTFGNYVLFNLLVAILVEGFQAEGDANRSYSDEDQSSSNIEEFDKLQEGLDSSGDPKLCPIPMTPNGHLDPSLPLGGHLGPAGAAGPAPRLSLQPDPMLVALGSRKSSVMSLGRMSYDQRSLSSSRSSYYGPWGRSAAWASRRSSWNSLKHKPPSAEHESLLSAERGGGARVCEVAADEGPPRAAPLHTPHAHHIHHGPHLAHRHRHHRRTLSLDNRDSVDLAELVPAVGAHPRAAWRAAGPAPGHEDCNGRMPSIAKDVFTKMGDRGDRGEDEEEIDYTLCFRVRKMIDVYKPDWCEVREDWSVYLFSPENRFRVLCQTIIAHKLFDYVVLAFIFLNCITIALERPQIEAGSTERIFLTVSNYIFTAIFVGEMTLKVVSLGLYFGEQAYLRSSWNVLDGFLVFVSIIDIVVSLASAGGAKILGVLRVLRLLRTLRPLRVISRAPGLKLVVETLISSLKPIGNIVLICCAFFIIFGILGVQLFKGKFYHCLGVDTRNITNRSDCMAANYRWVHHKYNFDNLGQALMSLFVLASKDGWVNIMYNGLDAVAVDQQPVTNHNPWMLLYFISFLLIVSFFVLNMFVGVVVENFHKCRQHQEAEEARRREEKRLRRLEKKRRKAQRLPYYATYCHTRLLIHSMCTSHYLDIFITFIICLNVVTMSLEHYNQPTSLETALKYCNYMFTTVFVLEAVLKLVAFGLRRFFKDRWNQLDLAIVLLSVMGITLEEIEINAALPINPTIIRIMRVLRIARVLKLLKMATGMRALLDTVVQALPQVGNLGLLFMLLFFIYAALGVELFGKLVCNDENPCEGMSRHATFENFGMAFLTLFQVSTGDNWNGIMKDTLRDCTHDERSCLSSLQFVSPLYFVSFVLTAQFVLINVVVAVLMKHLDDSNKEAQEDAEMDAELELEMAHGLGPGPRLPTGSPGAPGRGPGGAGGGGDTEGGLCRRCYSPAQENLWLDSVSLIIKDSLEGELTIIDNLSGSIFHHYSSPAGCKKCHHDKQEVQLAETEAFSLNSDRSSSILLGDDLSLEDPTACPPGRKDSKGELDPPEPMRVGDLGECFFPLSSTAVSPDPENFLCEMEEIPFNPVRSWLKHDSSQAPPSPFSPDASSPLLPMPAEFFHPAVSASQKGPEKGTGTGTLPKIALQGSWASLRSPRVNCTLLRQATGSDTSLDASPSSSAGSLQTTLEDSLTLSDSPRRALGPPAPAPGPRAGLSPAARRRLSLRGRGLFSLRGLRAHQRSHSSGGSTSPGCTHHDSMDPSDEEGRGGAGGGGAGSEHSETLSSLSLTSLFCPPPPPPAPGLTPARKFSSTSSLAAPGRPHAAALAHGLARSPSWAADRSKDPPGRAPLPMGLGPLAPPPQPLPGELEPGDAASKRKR
structure (smiles),measurement,setting,value
CC(C)c1ccc(CC(=O)N[C@H](C)c2ccc(OCC(F)(F)F)cn2)cc1 [CX-8998],Cmax,"[1]; 1 mg, PN001/Part I, males 20-40 y, single 1 mg fed, read-out: Cmax",56 nM
same,Cmax,"[1]; 1 mg, PN001/Part I, males 20-40 y, single 1 mg, morning fasted, read-out: Cmax",104 nM
same,Cmax,"[1]; 1 mg, fasted, read-out: Cmax, mean",104 nM
same,Cmax,"[1]; 1 mg, fed (high-fat meal), read-out: Cmax, mean",56 nM
same,Cmax,"[1]; 2 mg, PN002/Part I, males 55-75 y, single 2 mg, morning fasted, read-out: Cmax",198 nM
same,Cmax,"[1]; 8 mg, PN002/Part I, males 55-75 y, single 8 mg, morning fasted, read-out: Cmax",708 nM
same,Cmax,"[1]; 8 mg, single 8 mg CX-8998, PN002/Part I middle-aged and elderly males, read-out: Cmax",708 nM
same,AUC(0-t),"[1]; 12 mg, PN002 Part 2, 12 mg, 1 dose",4.99 µM·h
same,Cmax,"[1]; 12 mg, PN002 Part 2, 12 mg, 1 dose, read-out: Cmax",798 nM
same,AUC(0-t),"[1]; 16 mg, PN001 Part 1, 16 mg, 1 dose",8.52 µM·h
same,Cmax,"[1]; 18 mg, PN001/Part II, males 22-39 y, single 18 mg, morning fasted, read-out: Cmax",1180 nM
same,AUC(0-t),"[1]; 18 mg, PN001 Part 2, 18 mg, 1 dose",9.93 µM·h
same,Cmax,"[1]; 18 mg, PN001 Part 2, 18 mg, 1 dose, read-out: Cmax",1180 nM
same,Cmax,"[1]; 18 mg, PN002/Part I, males 55-75 y, single 18 mg, morning fasted, read-out: Cmax",1330 nM
same,AUC(0-t),"[1]; 18 mg, PN002 Part 1, 18 mg, 1 dose",9.44 µM·h
same,Cmax,"[1]; 18 mg, PN002 Part 1, 18 mg, 1 dose, read-out: Cmax",1330 nM
same,Cmax,"[1]; 24 mg, PN001/Part I, males 20-40 y, single 24 mg evening, read-out: Cmax",1370 nM
same,AUC(0-t),"[1]; Average of studies, dose 16, 1 dose",8.22 µM·h
same,Cmax,"[1]; Average of studies, dose 16, 1 dose, read-out: Cmax",1060 nM
same,Mean Cmax higher than in younger male subjects,"[1]; middle-aged and elderly female, 8 mg",6%
same,Mean Cmax higher than in younger male subjects,"[1]; middle-aged and elderly male, 8 mg",28%
same,Reduction in Cmax with food,[1]; vs fasted state,45%
same,"Css, estimated mean",[2]; middle-aged and elderly men,874 nM
same,"Steady-state AUC24, estimated mean",[2]; middle-aged and elderly men,20.976 µM·h
same,"Css, estimated mean",[2]; middle-aged and elderly women,981 nM
same,"Steady-state AUC24, estimated mean",[2]; middle-aged and elderly women,23.544 µM·h
same,"Css, estimated mean",[2]; young men,583 nM
same,"Steady-state AUC24, estimated mean",[2]; young men,13.992 µM·h
same,"Cu, ss_adj","[2]; adjusted for fu and potency, 10 mg BID",2.3 nM
same,"Cp, ss",[2]; [15],583 nM
same,"Cu, ss",[2]; [15],2.3 nM
same,IC50,[3]; depolarizing conditions,~3.6 nM and 3.6 nM
same,IC50,[3]; hyperpolarizing conditions,~161 nM and 161 nM
same,Reduction in cumulative time spent in seizure,"[4]; 1 mg/kg, 4 hours after dosing",55%
same,Suppression of seizure frequency,[4]; 10 mg/kg,up to 50%
same,Percent of inhibition,[4]; 10 mg/kg oral,77%
same,Suppression of accumulated time in seizure,"[4]; 10 mg/kg, 4 hours after dosing",77%
same,Suppression of accumulated time in seizure,"[4]; 10 mg/kg, 15 hours after dosing",54%
same,CL,[5]; [16],29 mL/min/kg
same,t½,[5]; [16],0.8 h
same,F,"[5]; Rat, oral 10 mg/kg vs IV 2 mg/kg, mean (SD)",42 (13) %
same,Plasma clearance,"[5]; rat, in vivo",29 mL/min/kg
same,half-life,"[5]; rat, in vivo",0.8 h
same,bioavailability,"[5]; rat, plasma, po, 10 mg/kg, single dose",42%
same,t½,[5]; rodents,0.8 h
same,fraction unbound,"[6]; rat plasma, read-out: In vitro plasma protein binding (converted)",~0.008
same,fraction unbound,"[6]; rats, read-out: free fraction",0.008
same,fraction unbound,"[6]; rodents, read-out: Plasma-free fraction",0.004
same,fraction unbound,"[7]; human plasma, read-out: Human-free fraction",0.004
same,fraction unbound,"[7]; human plasma, read-out: In vitro plasma protein binding (converted)",~0.004
same,fraction unbound,"[7]; humans, read-out: free fraction",0.004
same,P-glycoprotein substrate or inhibitor activity,[8],did not demonstrate any activity as a substrate or inhibitor
same,Time-dependent inhibition of CYP3A4 or CYP2B6,[9],insignificant
same,IC50,[10],> 20000 nM
same,Day 90 Free Margin for AUC24 at NOAEL for Dog 90-Day Toxicology,[11]; Female dogs vs human 10 mg BID,19
same,Day 90 Free Margin for Cmax at NOAEL for Dog 90-Day Toxicology,[11]; Female dogs vs human 10 mg BID (fed),57
same,Day 90 Free Plasma AUC24 at NOAEL for Dog 90-Day Toxicology,[11]; Female dogs,1089 nM · hr
same,Day 90 Free Margin for AUC24 at NOAEL for Rat 90-Day Toxicology,[11]; Female rats vs human 10 mg BID,81
same,Day 90 Free Margin for Cmax at NOAEL for Rat 90-Day Toxicology,[11]; Female rats vs human 10 mg BID (fed),184
same,Day 90 Free Plasma AUC24 at NOAEL for Rat 90-Day Toxicology,[11]; Female rats,4528 nM · hr
same,Day 90 Free Margin for AUC24 at NOAEL for Dog 90-Day Toxicology,[11]; Male dogs vs human 10 mg BID,18
same,Day 90 Free Margin for Cmax at NOAEL for Dog 90-Day Toxicology,[11]; Male dogs vs human 10 mg BID (fed),51
same,Day 90 Free Plasma AUC24 at NOAEL for Dog 90-Day Toxicology,[11]; Male dogs,1005 nM · hr
same,Day 90 Free Margin for AUC24 at NOAEL for Rat 90-Day Toxicology,[11]; Male rats vs human 10 mg BID,37
same,Day 90 Free Margin for Cmax at NOAEL for Rat 90-Day Toxicology,[11]; Male rats vs human 10 mg BID (fed),78
same,Day 90 Free Plasma AUC24 at NOAEL for Rat 90-Day Toxicology,[11]; Male rats,2088 nM · hr
same,NOAEL exposure vs intended free clinical exposures,"[11]; beagle, dog",approximately 20 times
same,Exposure without effects on fertility or reproduction vs intended clinical free AUC,[11]; rat,> 100 times
same,NOAEL exposure vs intended free clinical exposures,[11]; rat,at least 39 times
same,half-life,"[12]; female, 5 mg/kg/day",1.6 h
same,half-life,"[12]; female, 100 mg/kg/day",9.25 h
same,half-life,"[12]; female, 300 mg/kg/day",5.28 h
same,half-life,"[12]; male, 15 mg/kg/day",2.87 h
same,Tmax,"[12]; male, 100 mg/kg/day",2 h
same,half-life,"[12]; male, 100 mg/kg/day",3.72 h
same,half-life,"[12]; male, 300 mg/kg/day",5.68 h
same,AUC(0-t),[13],7.49 µM·h
same,"AUC728, Mean",[14]; IR Formulation,7435 nMh
same,AUC728,[14]; IR Formulation,9175 nMh and 4786 nMh and 6911 nMh and 7288 nMh and 4596 nMh and 7940 nMh and 13892 nMh and 7217 nMh and 7305 nMh and 9382 nMh and 5463 nMh and 6845 nMh and 5185 nMh and 8628 nMh and 6910 nMh
same,"AUC728, Mean",[14]; MR1 Formulation,7526 nMh
same,AUC728,[14]; MR1 Formulation,9494 nMh and 4762 nMh and 7028 nMh and 7387 nMh and 4102 nMh and 8335 nMh and 13265 nMh and 8177 nMh and 6271 nMh and 9351 nMh and 5184 nMh and 7996 nMh and 5635 nMh and 8950 nMh and 7114 nMh
same,"AUC728, Mean",[14]; MR2 Formulation,7119 nMh
same,AUC728,[14]; MR2 Formulation,11133 nMh and 3862 nMh and 8064 nMh and 6813 nMh and 4833 nMh and 8180 nMh and 10810 nMh and 6034 nMh and 6730 nMh and 10165 nMh and 4975 nMh and 6136 nMh and 3085 nMh and 10051 nMh and 5947 nMh
same,AUC72hr,[14]; following a single 8 mg dose of MR1 CX-8998,7530
same,AUC72hr,[14]; following a single 8 mg dose of MR2 CX-8998,7125
